The values below come from PubChem BioAssay AID328 (DTP/NCI, 2004).

Toxic doses and inconclusive results are not listed.

For this test, the system named is BDF1 mice, P388 leukemia ip, median survival T/C. The test is described as follows: NCI In Vivo Anticancer Drug Screen. Data for tumor model P388 Leukemia (intraperitoneal) in B6D2F1 (BDF1) mice. As to conditions: endpoint: median survival time, higher = longer survival. The essentials:
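Transplantable tumour in mice; compound vs vehicle dosing; survival scored; ratio of treated to control reported.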

Setting [1] is: dose: 100.0 mg/kg/injection, schedule: Q01DX009 (ip), vehicle: Klucel (hydroxypropylcellulose) (HPC).
Where [2] appears, read: dose: 200.0 mg/kg/injection, schedule: Q01DX009 (ip), vehicle: Klucel (hydroxypropylcellulose) (HPC).
Where [3] appears, read: dose: 400.0 mg/kg/injection, schedule: Q01DX009 (ip), vehicle: Klucel (hydroxypropylcellulose) (HPC).
Where [4] appears, read: dose: 100.0 mg/kg/injection, schedule: Q04DX003 (ip), vehicle: saline with Tween-80.
Setting [5] is: dose: 200.0 mg/kg/injection, schedule: Q04DX003 (ip), vehicle: saline with Tween-80.
The mark [6] stands for this setting: dose: 400.0 mg/kg/injection, schedule: Q04DX003 (ip), vehicle: saline with Tween-80.
The mark [7] stands for this setting: dose: 25.0 mg/kg/injection, schedule: Q04DX003 (ip), vehicle: saline.
Where [8] appears, read: dose: 100.0 mg/kg/injection, schedule: Q01DX009 (ip), vehicle: saline.
[9] abbreviates: dose: 50.0 mg/kg/injection, schedule: Q01DX009 (ip), vehicle: saline.
The mark [10] stands for this setting: dose: 50.0 mg/kg/injection, schedule: Q04DX003 (ip), vehicle: saline.
[11] abbreviates: dose: 100.0 mg/kg/injection, schedule: Q04DX003 (ip), vehicle: saline.
The mark [12] stands for this setting: dose: 200.0 mg/kg/injection, schedule: Q01DX009 (ip), vehicle: saline.
Setting [13] is: dose: 400.0 mg/kg/injection, schedule: Q01DX009 (ip), vehicle: saline.
Setting [14] is: dose: 400.0 mg/kg/injection, schedule: Q04DX003 (ip), vehicle: saline.

Regarding `C=COCC(C)C` (tested in a mixture with another compound), the T/C runs as follows: (dose: 0.19 mg/kg/injection, schedule: Q01DX009 (ip), vehicle: Klucel (hydroxypropylcellulose) (HPC)) 105 % of control; (dose: 0.39 mg/kg/injection, schedule: Q01DX009 (ip), vehicle: Klucel (hydroxypropylcellulose) (HPC)) 120 % of control; (dose: 0.78 mg/kg/injection, schedule: Q01DX009 (ip), vehicle: Klucel (hydroxypropylcellulose) (HPC)) 120 % of control; (dose: 0.78 mg/kg/injection, schedule: Q04DX003 (ip), vehicle: saline) 104 % of control; (dose: 1.56 mg/kg/injection, schedule: Q01DX009 (ip), vehicle: Klucel (hydroxypropylcellulose) (HPC)) 100 % of control; (dose: 1.56 mg/kg/injection, schedule: Q04DX003 (ip), vehicle: Klucel (hydroxypropylcellulose) (HPC)) 109 % of control. Besides, the T/C by setting is: (dose: 1.56 mg/kg/injection, schedule: Q04DX003 (ip), vehicle: saline) 95 % of control; (dose: 3.12 mg/kg/injection, schedule: Q04DX003 (ip), vehicle: Klucel (hydroxypropylcellulose) (HPC)) 104 % of control; (dose: 3.12 mg/kg/injection, schedule: Q04DX003 (ip), vehicle: saline) 104 % of control; (dose: 4.6 mg/kg/injection, schedule: Q04DX003 (ip), vehicle: saline) 104 % of control; (dose: 6.25 mg/kg/injection, schedule: Q04DX003 (ip), vehicle: Klucel (hydroxypropylcellulose) (HPC)) 113 % of control; (dose: 7.0 mg/kg/injection, schedule: Q04DX003 (ip), vehicle: saline) 109 % of control. Also, the T/C is 91 % of control (dose: 7.5 mg/kg/injection, schedule: Q01DX001 (ip), vehicle: alcohol); 110 % of control (dose: 8.75 mg/kg/injection, schedule: Q01DX009 (ip), vehicle: saline with Tween-80); 104 % of control (dose: 10.0 mg/kg/injection, schedule: Q04DX003 (ip), vehicle: saline); 104 % of control (dose: 15.0 mg/kg/injection, schedule: Q01DX001 (ip), vehicle: alcohol); 95 % of control (dose: 17.5 mg/kg/injection, schedule: Q01DX009 (ip), vehicle: saline with Tween-80); 104 % of control (dose: 30.0 mg/kg/injection, schedule: Q01DX001 (ip), vehicle: alcohol).
Turning to `COc1cccc(C(=O)O)c1OS(=O)(=O)c1ccccc1`, the T/C under setting [1] was 104 % of control; the T/C (dose: 100.0 mg/kg/injection, schedule: Q04DX003 (ip), vehicle: Klucel (hydroxypropylcellulose) (HPC)) is 110 % of control; the T/C under setting [2] is 95 % of control; the T/C (dose: 200.0 mg/kg/injection, schedule: Q04DX003 (ip), vehicle: Klucel (hydroxypropylcellulose) (HPC)) is 90 % of control; the T/C under setting [3] is 90 % of control; the T/C (dose: 400.0 mg/kg/injection, schedule: Q04DX003 (ip), vehicle: Klucel (hydroxypropylcellulose) (HPC)) is 105 % of control.
In the case of `CC1=C(N2CCN(c3ccc(Cl)cc3)CC2)C(=O)CC(C)(C)C1`, the T/C was 110 % of control under setting [1], 105 % of control under setting [2] and 100 % of control under setting [3].
Regarding `COC(=O)c1c(-c2ccccc2)c(-c2ccccc2)nn(-c2ccccc2)c1=O`, the T/C (dose: 400.0 mg/kg/injection, schedule: Q01DX001 (ip), vehicle: saline with Tween-80) was 87 % of control.
As to `OCCOc1cccc(OCCO)c1`, the T/C is 100 % of control under setting [4], 100 % of control under setting [5] and 104 % of control under setting [6].
As to `c1cc(Nc2ccncc2)ccn1`, the T/C by setting is: (dose: 6.25 mg/kg/injection, schedule: Q01DX009 (ip), vehicle: saline with Tween-80) 96 % of control; (dose: 6.25 mg/kg/injection, schedule: Q04DX003 (ip), vehicle: saline) 115 % of control; (dose: 12.5 mg/kg/injection, schedule: Q01DX009 (ip), vehicle: saline with Tween-80) 104 % of control; (dose: 12.5 mg/kg/injection, schedule: Q04DX003 (ip), vehicle: saline) 92 % of control; (dose: 25.0 mg/kg/injection, schedule: Q01DX009 (ip), vehicle: saline with Tween-80) 108 % of control; under setting [7], 107 % of control.
As for `Cc1ccc2c(ccc(C)[n+]2C)c1`, the T/C runs as follows: (dose: 67.0 mg/kg/injection, schedule: Q01DX009 (ip), vehicle: saline) 183 % of control; under setting [8], 150 % of control.
As to `CSCSCC(NS(=O)(=O)c1ccc(C)cc1)C(=O)O` (stereo unspecified), the T/C was 104 % of control under setting [4], 109 % of control under setting [5] and 100 % of control under setting [6].
On to `CNc1c(F)c(C#N)c(F)c(F)c1C#N`, for which the T/C (dose: 50.0 mg/kg/injection, schedule: Q01DX009 (ip), vehicle: saline with Tween-80) was 119 % of control.
On to `OCC1OC(n2cnc3c2NC=NC[C@H]3O)CC1O` (stereo partly specified), for which the T/C runs as follows: (dose: 0.25 mg/kg/injection, schedule: Q01DX005 (ip), vehicle: water) 102 % of control; (dose: 0.25 mg/kg/injection, schedule: Q01DX009 (ip), vehicle: water) 105 % of control; (dose: 0.25 mg/kg/injection, schedule: Q04DX002 (ip), vehicle: saline) 102 % of control; (dose: 0.25 mg/kg/injection, schedule: Q04DX003 (ip), vehicle: saline) 100 % of control; (dose: 0.5 mg/kg/injection, schedule: Q01DX005 (ip), vehicle: water) 109 % of control; (dose: 0.5 mg/kg/injection, schedule: Q01DX009 (ip), vehicle: water) 102 % of control. The T/C reads like this: (dose: 0.5 mg/kg/injection, schedule: Q04DX002 (ip), vehicle: saline) 101 % of control; (dose: 0.5 mg/kg/injection, schedule: Q04DX003 (ip), vehicle: saline) 99 % of control; (dose: 0.8 mg/kg/injection, schedule: Q01DX009 (ip), vehicle: saline) 94 % of control; (dose: 1.0 mg/kg/injection, schedule: Q01DX009 (ip), vehicle: saline) 99 % of control; (dose: 1.3 mg/kg/injection, schedule: Q01DX009 (ip), vehicle: saline) 92 % of control; (dose: 1.5 mg/kg/injection, schedule: Q01DX009 (ip), vehicle: saline) 96 % of control. For the same compound, the T/C is, setting by setting: (dose: 2.0 mg/kg/injection, schedule: Q01DX001 (ip), vehicle: saline) 108 % of control; (dose: 2.0 mg/kg/injection, schedule: Q01DX009 (ip), vehicle: saline) 92 % of control; (dose: 2.25 mg/kg/injection, schedule: Q01DX009 (ip), vehicle: saline) 99 % of control; (dose: 3.0 mg/kg/injection, schedule: Q01DX009 (ip), vehicle: saline) 100 % of control; (dose: 4.0 mg/kg/injection, schedule: Q01DX001 (ip), vehicle: saline) 100 % of control.
Regarding `c1ccc(-c2cscc2-c2ccccc2)cc1`, the T/C under setting [7] was 97 % of control; the T/C under setting [9] was 93 % of control; the T/C under setting [10] was 108 % of control; the T/C under setting [8] was 93 % of control; the T/C under setting [11] is 100 % of control; the T/C under setting [12] is 101 % of control. For the same compound, the T/C is 93 % of control under setting [13] and 100 % of control under setting [14].
For `COc1cc2c(cc1OCc1ccccc1)C(C#N)N(C(=O)c1ccccc1)C=C2` (stereo unspecified), the T/C is, setting by setting: (dose: 25.0 mg/kg/injection, schedule: Q01DX009 (ip), vehicle: saline) 109 % of control; under setting [7], 97 % of control; under setting [9], 100 % of control; under setting [10], 95 % of control; under setting [8], 97 % of control; under setting [11], 97 % of control. Further, the T/C by setting is: under setting [12], 98 % of control; (dose: 200.0 mg/kg/injection, schedule: Q04DX003 (ip), vehicle: saline) 88 % of control; under setting [13], 100 % of control; under setting [14], 94 % of control.
In the case of `CCC1(C(C)Br)OC2=C(CC(C#N)(C#N)C(C#N)(C#N)C2)O1` (stereo unspecified), the T/C by setting is: (dose: 12.0 mg/kg/injection, schedule: Q01DX001 (ip), vehicle: Klucel (hydroxypropylcellulose) (HPC)) 116 % of control; (dose: 25.0 mg/kg/injection, schedule: Q01DX001 (ip), vehicle: Klucel (hydroxypropylcellulose) (HPC)) 104 % of control; (dose: 50.0 mg/kg/injection, schedule: Q01DX001 (ip), vehicle: Klucel (hydroxypropylcellulose) (HPC)) 100 % of control.
